Patent US10653741B2, “Herbo-mineral formulation for the treatment of cardio vascular diseases and method of preparation thereof” (Muniyal Ayurvedic Research Centre, priority 2017, dated 2020)

Tests used:
[1] = Organ weight, ISP induced myocardial infarction study; format: in vivo, Sprague-Dawley rats; details: Carvedilol 2 mg/kg + ISP
Excerpt: (§1) Animals: 35 male Sprague-Dawley rats of 150-200 g body weight were selected for the study. Animals were housed in individual polycarbonate cages in a well-ventilated room under an ambient temperature of 23±2 degree C. and 40-65% relative humidity, with artificial photoperiod 12-h light/12-h dark cycle. They were provided with standard rodent pellet diet (Nutrilab Rodent, Tetragon Chemie, India) and purified water ad libitum (RIOS, USA). Experimental animals were acclimatized for 7 days to the laboratory conditions prior to experimentation. The study protocol was approved by Institutional Animal Ethical Committee (IAEC).
(§2) Experimental groups and design: Rats were randomized into 5 groups based on the body weight. ISP (120 mg/kg) was injected subcutaneously to rats on 19th and 21st day to induce experimental myocardial infarction. Test drug was orally administered throughout the study. • Group I (Normal control): 0.5% CMC • Group II (Positive control): 0.5% CMC+ISP (120 mg/kg) • Group III (Standard): Carvedilol (2 mg/kg/day, p.o)+ISP (120 mg/kg, s.c.) • Group IV (Low dose): Test drug (50 mg/kg/day, p.o)+ISP (120 mg/kg, s.c.) • Group V (High dose): Test drug (100 mg/kg/day, p.o)+ISP (120 mg/kg, s.c.)
(§3) The change in body weight was recorded every week. At the end of the experiment, blood was collected and the plasma was separated for biochemical investigation. The animals were euthanized and the organs (heart, Kidney and adrenals) were dissected out and weighed. Heart homogenate was used for further analysis and LV was separated for the analysis of apoptotic marker gene expression as depicted in the various examples hereunder.

[2] = Body weight, ISP induced myocardial infarction study; format: in vivo, Sprague-Dawley rats; details: Carvedilol 2 mg/kg + ISP, Mean ± SEM
Excerpt: as §1, §2, §3

For `COc1ccccc1OCCNCC(O)COc1cccc2[nH]c3ccccc3c12` (centres unmarked) [Carvedilol], the “Organ weight: Heart, percent in brackets (compared with Positive control)” value [1] was 13.1%, the “Organ weight: Adrenals” value ([1]; Mean ± SEM) was 0.02 ± 0.00 g and the “Organ weight: Heart” value ([1]; Mean ± SEM) was 0.44 ± 0.07 g. For the same molecule, the “Organ weight: Kidney” value ([1]; Mean ± SEM) was 0.68 ± 0.10 g, the Body weight ([2]; 0th day) was 211.00 ± 1.70 g and the Body weight ([2]; 7th day) was 210.57 ± 3.22 g. The Body weight ([2]; 14th day) was 218.43 ± 4.37 g and the Body weight ([2]; 21st day) was 216.43 ± 1.58 g.
